Data: patent US4816447A, “Anti-viral guanine compounds” (priority 1984, dated 1989)
Where two headings read alike, the source gives them in different places.

Tests used:
[1] = tested on: guanosine monophosphate kinase and extract of HSV1-infected HeLa cells; assay type: biochemical; conditions: gmp kinase, 4 h
Protocol: To the rest of the incubation mixtures were now added 0.04 units of guanosine monophosphate kinase and 20 μl of an extract of HSV1-infectedHeLa cells [The cells were infected with the virus at a multiplicity of 10 and harvested 8 hours later; they were suspended in a solution containing 0.35M KH2 PO4, pH 7.5, 0.5 mM dithiothreitol, 0.2% polyoxyethylene(9)octylphenol (Nonidet P-40), 14% glycerol at 50 mg/ml and after 30 minutes at 4° were centrifuged at […]; the supernatant liquid was the crude extract.] Incubation was continued at 30° for 4 more hours, after which samples were analyzed by HPLC and the amount of the triphosphate derivatives of each compound determined by integration of the area under the respective chromatographic peak.

[2] = tested on: Varicella-Zoster virus; assay: Varicella-Zoster plaque reduction assay on human MRC-5 monolayers; assay type: cell-based, Varicella-Zoster (Strain KMcC); human MRC-5 cells
Source text: ^b Plaque reduction assay on human MRC5 cell monolayers.

[3] = tested on: Epstein-Barr virus (EBV); assay: Human cord blood lymphocyte transformation assay; assay type: cell-based, Epstein-Barr (B95-8); human cord blood lymphocytes; conditions: human gammaherpesvirus 4, B-95-8; B95-8, lymphocyte transformation; read-out: Minimum Effective Concentration
Source text: ^c Human cord blood lymphocyte transformation assay.

[4] = tested on: Herpes simplex virus type I (HSV-1), strain Schooler; assay: Treatment of Herpes simplex virus infection in mice, intraperitoneal HSV-1, subcutaneous treatment (Table II); assay type: in vivo, HSV-1; ICR/Ha mice; conditions: for Percent Survival: at 15 days
[5] = tested on: HSV-1; assay: In vitro activity against HSV-1 with and without added thymidine; assay type: cell-based; conditions: for EC50: read-out: ED50 (the source's name)
[6] = tested on: HSV-1 (383R1); assay: Protection of mice against intraperitoneal infection with HSV-1 (383R1) (Table IX); assay type: in vivo, HSV-1; mice
Protocol: 1. […] Groups of mice infected intraperitoneally with increasing doses of HSV-1 or HSV-1 (383R1) were treated twice daily subcutaneously for 4 days with either the Cyclic Monophosphate or the compound of Formula II. Mean survival times of treated mice were compared.

[7] = tested on: Herpes simplex virus type 2 (Strain Curtis); assay: Vaginal Herpes simplex virus type 2 infection in mice, oral treatment (Table XII); assay type: in vivo, Herpes simplex virus type 2; ICR/Ha female mice; conditions: for Percent Survival: at 19 days
Protocol: Groups of 10 animals were treated twice daily for ten days by oral gavage using acycloquanosine or the compound of formula II at final daily doses of 50, 12.5, 3.1, 0.8 or 0.2 mg/kg starting immediately following infection. The average number of days to infection and the average days of survival were determined for each group and compared to an infected, placebo-treated group.

[8] = tested on: Herpes simplex virus type 1 (Strain S); assay: Orofacial Herpes simplex virus type 1 infection in mice, oral treatment (Table XIII); assay type: in vivo, Herpes simplex virus type 1; HRS (hairless) mice; conditions: for Lesion Incidence (%) / Lesion Incidence (number/Total) / Lesion Severity (scale 0 to 4): 7 days
Protocol: Twenty grams HRS (hairless) mice were infected on the abraded orofacial area with Herpes simplex virus type 1 (Strain S). […] At 7 days after initiation of infection, the extent of lesion development in the orofacial area was measured on a scale of 0 (no lesions) to 4 (massive lesions over the entire snout).

[9] = tested on: Herpes simplex virus type 1 (Strain S); assay: Orofacial Herpes simplex virus type 1 infection in mice, therapeutic oral treatment (Table XIV); assay type: in vivo, Herpes simplex virus type 1; HRS (hairless) mice; conditions: for Lesion Incidence (%) / Lesion Incidence (number/Total) / Lesion Severity (scale 0 to 4): 12.5 mg/kg/day oral
Protocol: Twenty gram HRS (hairless) mice were infected on the abraded orofacial area with Herpes simplex virus type 1 (Strain S).
a. Groups of 10 infected animals were treated twice daily by oral gavage for up to 7 days with the compound of formula II at 12.5 mg/kg/day, starting 3, 8, 12, 24, 48, 72, or 96 hours after infection. […]
At 7 days after initiation of infection, the extent of lesion development in the orofacial area was measured on a scale of 0 (no lesions) to 4 (massive lesions over the entire snout).

[10] = tested on: HSV-1 PAA ®1; assay: microbe, parasite or virus in culture; conditions: Human alphaherpesvirus 1, read-out: ED50
[11] = tested on: HSV-2 TS6; assay: microbe, parasite or virus in culture; conditions: Human alphaherpesvirus 2, read-out: ED50

Compound: Nc1nc2c(ncn2COC(CO)CO)c(=O)[nH]1 [Compound of Formula II, 9-(1,3-Dihydroxy-2-propoxymethyl)guanine]
- converted to the triphosphate [1]: 93%
- minimal effective concentration ([2]; Human alphaherpesvirus 3, MRC5, Strain KMcC, plaque reduction, read-out: Minimum Effective Concentration): 1 to 2 µg/mL
- comparative activity ([2]; compound of formula II vs acycloguanosine): equally active
- minimal effective concentration [3]: 1 to 5 µg/mL
- Avg. Survival Time ([4]; 3.1 mg/kg/day s.c.): 12.5 days
- Percent Survival ([4]; 3.1 mg/kg/day s.c.): 53%
- Avg. Survival Time ([4]; 12.5 mg/kg/day s.c.): 14.1 days
- Percent Survival ([4]; 12.5 mg/kg/day s.c.): 73%
- Avg. Survival Time ([4]; 50 mg/kg/day s.c.): 19.1 days
- Percent Survival ([4]; 50 mg/kg/day s.c.): 100%
- reduction of antiviral activity by thymidine ([5]; 20 μg thymidine/ml): greater than 15 fold
- EC50 ([5]; Human alphaherpesvirus 1, absence of thymidine): 0.8 to 1.6 µg/mL
- EC50 ([5]; Human alphaherpesvirus 1, presence of thymidine (20 μg/ml)): 25 µg/mL
- Mean Survival Time (± SD) ([6]; HSV-1 (383R1), s.c. twice daily, 4 days): 9.05 (0.80)
- efficacy against HSV-1 (383R1) relative to wild type HSV-1 ([6]; mouse, in vivo): significantly lower
- Avg. Survival Time ([7]; 0.2 mg/kg/day oral): 12.1 days
- Percent Survival ([7]; 0.2 mg/kg/day oral): 30%
- Avg. Survival Time ([7]; 0.8 mg/kg/day oral): 15.1 days
- Percent Survival ([7]; 0.8 mg/kg/day oral): 40%
- Avg. Survival Time ([7]; 3.1 mg/kg/day oral): 19.1 days
- Percent Survival ([7]; 3.1 mg/kg/day oral): 75%
- Avg. Survival Time ([7]; 12.5 mg/kg/day oral): 24.7 days
- Percent Survival ([7]; 12.5 mg/kg/day oral): 100%
- number of days to infection vs placebo ([7]; 50 mg/kg and 12.5 mg/kg): statistically significant increases in the number of days to infection
- signs of herpetic infection ([7]; 50 mg/kg, duration of the test): remained free of signs of herpetic infection
- Avg. Survival Time ([7]; 50 mg/kg/day oral): 24.7 days
- Percent Survival ([7]; 50 mg/kg/day oral): 100%
- survival time vs placebo ([7]; 50, 12.5, 3.1 and 0.8 mg/kg): statistically significant increase in survival time
- survival rate vs placebo ([7]; 50, 12.5 and 3.1 mg/kg): statistically significantly increased
- relative potency to acycloguanosine as measured by survival ([7]; statistically significant): 28.1
- relative potency to acycloguanosine as measured by time to infection ([7]; statistically significant): 4.14
- Lesion Incidence (%) ([8]; 0.2 mg/kg/day oral): 100%
- Lesion Incidence (number/Total) ([8]; 0.2 mg/kg/day oral): 7/7
- Lesion Severity (scale 0 to 4) ([8]; 0.2 mg/kg/day oral): 2.93
- Lesion Incidence (%) ([8]; 0.8 mg/kg/day oral): 100%
- Lesion Incidence (number/Total) ([8]; 0.8 mg/kg/day oral): 7/7
- Lesion Severity (scale 0 to 4) ([8]; 0.8 mg/kg/day oral): 2.93
- Lesion Incidence (%) ([8]; 3.1 mg/kg/day oral): 67%
- Lesion Incidence (number/Total) ([8]; 3.1 mg/kg/day oral): 6/9
- Lesion Severity (scale 0 to 4) ([8]; 3.1 mg/kg/day oral): 1.00
- Lesion Incidence (%) ([8]; 12.5 mg/kg/day oral): 20%
- Lesion Incidence (number/Total) ([8]; 12.5 mg/kg/day oral): 2/10
- Lesion Severity (scale 0 to 4) ([8]; 12.5 mg/kg/day oral): 0.45
- Lesion Incidence (%) ([8]; 50 mg/kg/day oral): 10%
- Lesion Incidence (number/Total) ([8]; 50 mg/kg/day oral): 1/10
- Lesion Severity (scale 0 to 4) ([8]; 50 mg/kg/day oral): 0.05
- incidence of lesions vs placebo ([8]; 50 and 12.5 mg/kg): statistically significant protection
- extent of lesion development vs placebo ([8]; all concentrations used): statistically significant protection
- relative potency to acycloguanosine ([8]; statistically significant): 6.9
- Lesion Incidence (%) ([9]; start 3 hours post infection): 60%
- Lesion Incidence (number/Total) ([9]; start 3 hours post infection): 6/10
- Lesion Severity (scale 0 to 4) ([9]; start 3 hours post infection): 1.30
- Lesion Incidence (%) ([9]; start 8 hours post infection): 30%
- Lesion Incidence (number/Total) ([9]; start 8 hours post infection): 3/10
- Lesion Severity (scale 0 to 4) ([9]; start 8 hours post infection): 0.55
- Lesion Incidence (%) ([9]; start 12 hours post infection): 50%
- Lesion Incidence (number/Total) ([9]; start 12 hours post infection): 5/10
- Lesion Severity (scale 0 to 4) ([9]; start 12 hours post infection): 0.55
- Lesion Incidence (%) ([9]; start 24 hours post infection): 40%
- Lesion Incidence (number/Total) ([9]; start 24 hours post infection): 4/10
- Lesion Severity (scale 0 to 4) ([9]; start 24 hours post infection): 0.40
- Lesion Incidence (%) ([9]; start 48 hours post infection): 90%
- Lesion Incidence (number/Total) ([9]; start 48 hours post infection): 9/10
- Lesion Severity (scale 0 to 4) ([9]; start 48 hours post infection): 1.50
- Lesion Incidence (%) ([9]; start 72 hours post infection): 80%
- Lesion Incidence (number/Total) ([9]; start 72 hours post infection): 8/10
- Lesion Severity (scale 0 to 4) ([9]; start 72 hours post infection): 2.55
- Lesion Incidence (%) ([9]; start 96 hours post infection): 100%
- Lesion Incidence (number/Total) ([9]; start 96 hours post infection): 10/10
- Lesion Severity (scale 0 to 4) ([9]; start 96 hours post infection): 3.85
- incidence of lesion development vs placebo ([9]; start 8, 12 and 24 hours after infection): statistically significant lower incidence of lesion development
- lesion scores vs placebo ([9]; start as late as 72 hours after infection): statistically significant lower lesion scores
- EC50 [10]: 0.1 µg/mL
- EC50 [11]: 15.5 µg/mL
